Results on 15 molecules are retold here after PMC8624133, “10th Trends in Medical Mycology Held on 8 to 11 October 2021, Aberdeen, Scotland, Organized by the European Confederation of Medical Mycology (ECMM)” (Journal of Fungi, 2021).

In brackets after ≈: the same amount, converted by molar mass.

Assay [1] concerns Exophiala phaeomuriformis. The experiment in a line: MIC, CLSI M27-A3. The assay is classed as cell-based. Conditions: read-out: MIC values. Here is the method: Materials & Methods: The aviation kerosone samples came from an aviation company in Porto Alegre, state of Rio Grande do Sul, Brazil. The fungi isolation was carried out using the modified ASTM D6974-09 Standard. In this procedure, 500 mL kerosene samples were filtered, in triplicate, under aseptic conditions, under vacuum, using a 0.22 μm membrane (Millipore). After filtering, the membranes were deposited in potato dextrose agar culture medium. The plates were incubated in an oven at 30 °C for seven days. After this period, the colonies were isolated in new culture media for purification of the isolates. Molecular identification was performed through the sequencing of ITS DNA regions. The profile of sensitivity to clinical antifungals was assessed following protocols M27-A3 of the Clinical and Laboratory Standards Institute (CLSI).

The test system of another assay is Rhizopus oryzae. The experiment in a line: Pandemic Box screening, EUCAST protocol. Particulars: for inhibition of R. oryzae growth: 5 µM. In kind it is cell-based. The protocol: (§1) Materials & Methods: An initial screening of the 400 compounds (5 µM) in this collection was performed with the Rhizopus oryzae, according to the EUCAST protocol. Compounds with activity against R. oryzae have also been tested against other mucormycosis etiological agents (Rhizopus microsporus e Rhizopus stolonifer) at concentrations ranging from 0.08 µM to 20 µM.

In the next assay the test system is C. albicans. The assay is classed as cell-based, Candida albicans.
The next assay deals with C. glabrata. In kind it is cell-based, Candida glabrata.
The next assay concerns Other species of Candida. The assay is classed as cell-based, Candida spp.
The next assay has as its system C. tropicalis. In kind it is cell-based, Candida tropicalis.
The test system of another assay is C. krusei. The assay is classed as cell-based, Candida krusei.
Another assay relates to C. parapsilosis. In kind it is cell-based, Candida parapsilosis.
Assay [2] deals with P. insidiosum (strains CBS101555, P38, ATCC90586). The experiment in a line: Radial growth assay. In kind it is cell-based, Pythium insidiosum. Conditions: for reduction of growth compared to the control: colony radial growth. Here is the method:
These agriculture fungicides were initially evaluated for inhibitory effect against 3 phylogenetical distinct strains of P. insidiosum (i.e., strains CBS101555, P38, and ATCC90586) isolated from humans and animal with pythiosis in Thailand, Brazil, and United States. A radial growth assay was employed for the in vitro susceptibility analysis. […] The percentage of the colony’s radial growth of the treated organism was calculated in relation to the untreated control. The microscopic changes of the microorganisms were recorded.

The test system of assay [3] is clinical dermatophyte isolates. Briefly: Inhibition of dermatophyte biofilm formation. The assay is classed as cell-based. The protocol: Materials and Methods: The study population consisted of 50 dermatophyte isolates that were collected from 2019 to 2020 from patients referred to the two mycology laboratory of Shiraz, Iran. The isolates were identified by ITS gene region sequencing. The suspension (equivalent to 0.5 McFarland) of the isolates was used to evaluate the ability of the isolates to form biofilms and also the effect of itraconazole, terbinafine and griseofulvin at concentrations of 2–32 μg/mL on inhibiting biofilm formation. Two optical microscope and a scanning electron microscope were used to study the microscopic structure of biofilms formed on the surface of 96-well plate wells.

The subject of another assay is three Rhizopus species. The experiment in a line: MIC and fungicidal activity. In kind it is cell-based, Rhizopus oryzae, R. microsporus, R. stolonifer. Conditions: for MIC: 0.08 µM to 20 µM tested. Here is the method:
as §1

Assay [4] deals with A. fumigatus (resistant to posaconazole strain v79-63). Briefly: Neutropenic animal model of invasive pulmonary aspergillosis. In kind it is in vivo, CD-1 mice.

Consider `CC(=O)N1CCN(c2ccc(OCC3COC(Cn4ccnc4)(c4ccc(Cl)cc4Cl)O3)cc2)CC1` (stereo not shown) [ketoconazole], for which, in [1], the MIC (commonly the smallest concentration in the dilution series that meets the test's criterion for growth inhibition) was found to be 125 µg/mL (≈ 235 µM).
Take `Oc1cccc(C(Nc2nccs2)c2ccc3cccnc3c2O)c1` (stereo not shown) [MMV642550]: the “inhibition of R. oryzae growth” value in the assay with Rhizopus oryzae was “more than 50%”.
On to `Nc1nc(=O)[nH]cc1F` [5-FC, 5-flucytosine], for which the “I (intermediate) isolates, n (%)” value in the assay on C. albicans is listed as 1 (0.5%); in the assay on C. glabrata, 0 (0%); with Other species of Candida, 0 (0%); in the assay with C. tropicalis it was 0 (0%); in the assay on C. krusei it was 3 (42.9%); in the assay with C. parapsilosis it was 1 (0.6%). For the same molecule, the “R (resistant) isolates, n (%)” value with C. albicans is 2 (1%); in the assay on C. glabrata, 0 (0%); in the assay on Other species of Candida it was 0 (0%); with C. tropicalis it was 0 (0%); in the assay with C. krusei, 3 (42.9%); in the assay on C. parapsilosis, 2 (01.2%). The “S (sensitive) isolates, n (%)” value is 199 (98.5%) with C. albicans; 71 (100%) in the assay on C. glabrata; 26 (100%) with Other species of Candida; 57 (100%) in the assay on C. tropicalis; 1 (14.3%) in the assay on C. krusei; 170 (98.3%) in the assay with C. parapsilosis.
In turn, `Cc1ccc(-c2c(Cl)nc(C#N)n2S(=O)(=O)N(C)C)cc1` [cyazofamid] displayed an MIC in assay [2] (Pythium insidiosum) of 16 µg/mL (≈ 49.3 µM). Further, the “reduction of growth compared to the control” value in assay [2] is reported as “at least 70%”.
With `COc1cc(NS(=O)(=O)c2ccc(C)cc2)c2ncccc2c1` [MMV098836], the “inhibition of R. oryzae growth” value in the assay with Rhizopus oryzae is “more than 50%”.
For the molecule `Cc1cccc(C)c1C(=O)Nc1nc(-c2ccccn2)cc2ccccc12` [MMV1581558], the “inhibition of R. oryzae growth” value with Rhizopus oryzae is listed as “more than 50%”.
Regarding `COc1ccc(C(=CC(=O)N2CCOCC2)c2ccc(Cl)cc2)cc1OC` [dimethomorph], the inhibition (usually the change of the read-out against control, counted positive when it falls) in assay [2] is listed as “no significant inhibition”.
In the case of `O=C(NCc1ncc(C(F)(F)F)cc1Cl)c1c(Cl)cccc1Cl` [Fluopicolide, fluopicolide], the “reduction of growth compared to the control” value in [2] is “at least 70%”. The molecule also showed an MICs in assay [2] (tested at 0.25–[…], 3 biological replicates) of 8 µg/mL.
With `c1cc(CN2CCCNCCNCCCNCC2)ccc1CN1CCCNCCNCCCNCC1` [MMV1580502], the “inhibition of R. oryzae growth” value with Rhizopus oryzae is listed as “more than 50%”.
Consider `COC1=CC(=O)C[C@@H](C)[C@]12Oc1c(Cl)c(OC)cc(OC)c1C2=O` [griseofluvin, griseofulvin], for which the IC50 in assay [3] (inhibition of biofilm formation, read-out: mean concentrations of IC50) was found to be 3.18 µg/mL (≈ 9.01 µM). For the same molecule, in assay [3] (tested at 2–32 μg/mL), the “samples with IC50 in concentration <2” value worked out at 66%.
Turning to `Cc1cc(C(F)(F)F)nn1CC(=O)N1CCC(c2nc(C3=NOC(c4c(F)cccc4F)C3)cs2)CC1` (stereo not shown) [oxathiapiprolin], the inhibition entry in assay [2] is “no significant inhibition”.
As for `Oc1c(C(Nc2nc3ccccc3s2)c2ccc(OC(F)F)cc2)ccc2cccnc12` (stereo not shown) [MMV019724], the “inhibition of R. oryzae growth” value in the assay with Rhizopus oryzae is “more than 50%”.
As for `CCc1nc(N)nc(N)c1C#CC(C)c1cc(OC)cc(-c2ccncc2)c1` (stereo not shown) [MMV1580844], in the assay on three Rhizopus species, the fungicidal activity entry is recorded as “did not show fungicidal activity” and the MIC is given as 0.08 µM (≈ 0.0299 µg/mL). Also, the “inhibition of R. oryzae growth” value with Rhizopus oryzae is recorded as “more than 50%”.
In the assay on three Rhizopus species, `CCCCC(CC)CNC(=N)NC(=N)NCCCCCCNC(=N)NC(=N)NCC(CC)CCCC` (stereo not shown) [MMV396785, Alexidine] had a fungicidal activity of 10 µM. In the assay on three Rhizopus species (Rhizopus), this molecule displayed an MIC of 0.63 to 1.25 µM (≈ 0.321 to 0.636 µg/mL). In the assay on Rhizopus oryzae (Rhizopus arrhizus, read-out: inhibition of R. oryzae growth), the inhibition at 5 µM is more than 50%.

B1: IL-18: Mouse cytokine IL-18 (protein, UniProt P70380 36-192, looked up)
Interleukin-18: NFGRLHCTTAVIRNINDQVLFVDKRQPVFEDMTDIDQSASEPQTRLIIYMYKDSEVRGLAVTLSVKDSKMSTLSCKNKIISFEEMDPPENIDDIQSDLIFFQKRVPGHNKMEFESSLYEGHFLACQKEDDAFKLILKKKDENGDKSVMFTLTNLHQS
In turn, B1 registered a log10CFU/lung in [4] (mean ± SEM, 3 animals treated for 3 d, placebo 6.1 ± 0.08) of 4.82 ± 0.44 log10CFU/lung. The molecule also registered a survival rates in [4] (survival recorded until 15 d, IL-18 10 ng/mouse intranasally daily -2 d till +7 d, posaconazole 16 mg/kg/day, groups of 10, control 20%) of 56%.
